Our source for the outcome, EC50 and IC50 values is PubChem BioAssay AID179 (DTP/NCI, 2004).

In this assay the test system is CEM cells HIV-1 protection, formazan growth assay. The experiment in a line: NCI AIDS Antiviral Assay. Particulars: for IC50: measured here: growth of uninfected CEM cells. In outline: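 CEM (human) cells, HIV-1 infected vs uninfected, 5-point dosing, formazan growth read-out. Retest threshold 50% protection.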

Activity calls are given as the source filed them.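 Rule for the calls: active = compounds giving half or more protection of infected cells from virus-caused growth loss, again on retest; inactive = the rest.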

Take `O=C1c2ccccc2C(=O)c2c1cccc2-n1nnc2cc(Cl)c(Cl)cc21`: the result was inactive.

By EC50 is commonly meant the concentration giving half of the maximal effect. Broadly, the IC50 is the concentration that gives 50% inhibition. High values mean weaker potency in that assay, low ones greater potency in that assay. As to `Cc1ccc2c(c1)C(C1Cc3cccc(C)c3C1=O)OC2=O` (configuration not stated), the EC50 is above 200 µM and the IC50 was above 200 µM.

For `CCOC(=O)/C(=C\c1cccc(OC)c1)[Se]c1ccccc1`, the EC50 is above 14.5 µM and the IC50 was 7.59 µM.

Take `COC(=O)/C(=N\NC(C)(C)C)C(C(=O)OC)C(=O)C(=O)Nc1cc(Cl)ccc1Cl` (configuration not stated): the outcome was inactive.

In the case of `Cc1c2ccccc2nc(CSCCC(C)C)[n+]1[O-]`, the EC50 is 28.8 µM and the IC50 is 135 µM.

On to `O=C1C(c2ccccc2)=C(c2ccccc2)C(c2ccc(Sc3ccc(C4=C(c5ccccc5)C(=O)C(c5ccccc5)=C4c4ccccc4)cc3)cc2)=C1c1ccccc1`, for which the EC50 was above 1.82 µM and the IC50 was above 1.82 µM.

In the case of `CC1=CC(C)N(C(=O)c2ccc(Cl)cc2)CCN1C(=O)c1ccc(Cl)cc1` (configuration not stated), the EC50 is above 44.7 µM and the IC50 is 33.9 µM.

`Cc1ccc2nc(-c3ccc(-c4nc5ccc(C)cc5o4)c(O)c3)oc2c1`: the EC50 was above 200 µM and the IC50 was above 200 µM.

In the case of `COc1ccc(/C=C(/C(C)=O)c2ccccc2)cc1`, the EC50 is above 74.1 µM and the IC50 was above 74.1 µM.

With `COc1cc(/C=C(\C#N)c2ccccn2)cc(Br)c1O`, the EC50 was above 200 µM and the IC50 worked out at 28.2 µM.

Regarding `CCNc1cc2oc(=O)cc(C(F)(F)F)c2cc1C`, the EC50 was above 13.8 µM and the IC50 was above 13.8 µM.

Consider `OC1CN2CCS[C@H]2C(O)C1O` (some centres not stated), for which the EC50 was above 200 µM and the IC50 is above 200 µM.

As for `c1ccc(CN[C@]23C4C5CC6C7C5C2C7[C@@](NCc2ccccc2)(C64)N3Cc2ccccc2)cc1` (some centres not stated), the EC50 was above 200 µM and the IC50 was 105 µM.

Regarding `COc1cc2c(cc1OC)C1Cc3cc(OC)c(OC)cc3N1CC2` (configuration not stated), the EC50 is above 29.5 µM and the IC50 is 9.12 µM.

Consider `C=CC1C2=C(C(=O)NCC2)C2OC(O)C3=C(CCNC3=O)C2C1C` (configuration not stated), for which the outcome was inactive.

Take `C(=C1/CCCCC([n+]2ccccc2)=N1)/c1ccccc1`: the outcome was inactive.

`CCN(CC)CCOc1ccc(/C=C(\C#N)c2ccc(OC)cc2)cc1`: the EC50 was above 200 µM and the IC50 was determined as 2.14 µM.

For the compound `O=C1c2ccsc2C(=O)c2ccsc21`, the EC50 is above 6.61 µM and the IC50 amounted to 5.13 µM.

In the case of `CC(=O)OCC1OC(N2C(=O)[C@H](Oc3ccccc3)[C@@H]2c2ccccc2)C(OC(C)=O)C(OC(C)=O)C1OC(C)=O` (some centres not stated), the EC50 was above 100 µM and the IC50 is above 100 µM.

On to `CCN(CC)CCOc1ccc(S(=O)(=O)c2ccc(OCCN(CC)CC)cc2)cc1`, for which the EC50 was above 200 µM and the IC50 worked out at 39.8 µM.

As for `Cc1ccc(NC(=O)CC2SC(=Nc3ccc(Cl)cc3)NC2=O)cc1C` (configuration not stated), the EC50 is above 51.3 µM and the IC50 is above 51.3 µM.

Take `COc1ccc(N=C2C(=Nc3ccc(OC)cc3)N(c3ccccc3)C(=S)N2N=C=C2Sc3ccccc3N2C)cc1`: the EC50 was above 200 µM and the IC50 turned out to be 25.7 µM.

Take `COC(=O)C1=C2Nc3ccccc3[C@@]23CCN(Cc2ccccc2)C3C[C@H]1c1ccoc1` (some centres not stated): the EC50 is above 29.5 µM and the half-inhibitory concentration (IC50) was above 29.5 µM.

As for `Cc1cc(NS(=O)(=O)c2ccc(N=Nc3c(N)n(C)c(=O)n(C)c3=O)cc2)nc(C)n1`, the EC50 is above 200 µM and the IC50 is above 200 µM.

In the case of `CCC/[N+]([O-])=C/c1ccc([N+](=O)[O-])o1`, the outcome was inactive.

As for `CN(c1nc(=[N+](C)C)ss1)C1CCCCC1`, the outcome was inactive.

With `O=C1NC23CC=CCC12CCCCCC3` (configuration not stated), the EC50 was above 389 µM.

Take `OCC(O)COc1ccc(F)cc1` (configuration not stated): the EC50 is above 1350 µM and the IC50 was above 1350 µM.

For the compound `O=C(CC1(O)C(=O)Nc2ccc(Br)cc21)c1ccc(Cl)cc1` (configuration not stated), the EC50 was above 93.3 µM and the IC50 was above 93.3 µM.

Consider `C[N+]12CC[N+](C)(CC1)CC2`, for which the EC50 was above 832 µM and the IC50 is above 832 µM.

As for `CCOC(=O)C1CSC(=N)N1C(C)=O` (configuration not stated), the EC50 is 115 µM and the IC50 came out at 123 µM.

As for `O=c1cc(-c2ccc(Cl)cc2)oc2cc(OCCCOc3ccc4c(=O)cc(-c5ccc(Cl)cc5)oc4c3)ccc12`, the EC50 was above 0.646 µM and the IC50 was above 0.646 µM.

`O=C1OCCCCOC(=O)c2ccccc2SSc2ccccc21`: the EC50 is above 200 µM and the IC50 was above 200 µM.

Consider `CC(=O)Nc1ccc(/C=C2\SC(=S)N(/C=C(/C#N)S(=O)(=O)c3ccc(C)cc3)C2=O)cc1`, for which the EC50 is above 200 µM and the IC50 was 74.1 µM.

Turning to `O=C(O)/C(=C(/c1ccccc1)c1ccc(Cl)cc1)c1ccccc1`, the EC50 was above 107 µM and the IC50 stood at 89.1 µM.

Regarding `Oc1ccc2c(c1)CCc1c-2n(CCN2CCOCC2)c2ccc(O)cc12`, the EC50 was above 200 µM and the half-maximal inhibitory concentration (IC50) was determined as 14.8 µM.

As for `Fc1ccccc1C1SCc2nc3ccccc3n21` (configuration not stated), the EC50 was 11 µM and the IC50 turned out to be 38.9 µM.

In the case of `CCOC(=O)CSc1nc(N)c2c(-c3ccccc3)c3c(nc2n1)CCCC3`, the EC50 is above 200 µM and the IC50 was above 200 µM.

As to `Cc1cc(C)nc(NS(=O)(=O)c2ccc(NC(=O)COC(=O)c3cccc4c(=O)c5ccccc5[nH]c34)cc2)n1`, the outcome was inactive.

As for `Oc1cc(OCCCc2ccc(F)cc2)cc2ccc3ccccc3c12`, the EC50 was above 55 µM and the IC50 is 31.6 µM.

Regarding `CCOC(=O)c1[nH]c(Br)c(-c2ccc(Br)cc2)c1Br`, the EC50 is above 2 µM and the IC50 came to 0.912 µM.

In the case of `Oc1[nH]c2ccccc2c1N=NC(=S)N1CCCC1`, the EC50 is above 200 µM and the IC50 was 1.55 µM.

In the case of `C/C(CC(O)(C(F)(F)F)C(F)(F)F)=N/Nc1ccc([N+](=O)[O-])cc1[N+](=O)[O-]`, the EC50 was above 200 µM and the IC50 was found to be 1.41 µM.

As for `CNCCSSCCN`, the EC50 was above 200 µM and the IC50 was above 200 µM.

With `C=CCn1c(=O)c2ccccc2[n+]2c(-c3cccc([N+](=O)[O-])c3)csc12`, the EC50 was above 200 µM and the IC50 is above 200 µM.

On to `COc1ccccc1/C=C/C(=O)O`, for which the EC50 was above 525 µM and the IC50 is above 525 µM.

For the compound `Cc1cc(S(=O)(=O)NC2=NCc3c(F)cccc3N2)c(S)cc1Cl`, the EC50 was above 97.7 µM and the IC50 came to 72.4 µM.

For the compound `O=C(c1ccccc1)N1OC12CCCCC2`, the EC50 is above 200 µM and the 50% inhibitory concentration (IC50) is 51.3 µM.

With `CCOC(=O)c1ccc(C(=O)/C(C(=O)OC(C)(C)C)=C2\CCCN2C)n1C`, the EC50 is 89.1 µM and the IC50 amounted to 141 µM.

Regarding `O=C(O)CN(CCNC(=O)OCC1c2ccccc2-c2ccccc21)CCNC(=O)OCC1c2ccccc2-c2ccccc21`, the EC50 is above 200 µM and the IC50 was 39.8 µM.

As to `COc1ccc(NC(C)=O)cc1N1C(=O)/C(=C\c2cccc(Oc3ccccc3)c2)S(=O)(=O)C1c1ccccc1` (configuration not stated), the EC50 is above 200 µM and the IC50 amounted to 33.1 µM.

As for `Cc1nc(-c2ccc(Cl)cc2)cn2c1nc1ccccc12`, the EC50 is 61.7 µM and the IC50 worked out at 191 µM.

As to `CCOP(=O)(OCC)/C(C#N)=C/c1ncc[nH]1`, the EC50 is above 200 µM and the IC50 was above 200 µM.

Take `CC(=O)CC(=O)NC=O`: the EC50 was above 263 µM and the IC50 is above 263 µM.

For the compound `O=c1c([Se]c2coc3ccccc3c2=O)coc2ccccc12`, the EC50 is above 10.2 µM and the IC50 is above 10.2 µM.

In the case of `CCCCCCCCCCCCCCCCN1c2ccccc2C(C)(C)C12C=Cc1cccc([N+](=O)[O-])c1O2` (configuration not stated), the EC50 is above 200 µM and the IC50 was above 200 µM.

Regarding `COc1ccc(N2C(=O)C3c4[nH]c5ccccc5c4C4CCC(c5ccccc5)CC4C3C2=O)cc1` (configuration not stated), the EC50 was above 100 µM and the IC50 was above 100 µM.

For `O=[N+]([O-])C1(CO)COC2(OC1)c1ccccc1-c1ccccc12`, the result was inactive.

Take `CCCCOC(=O)C(O)Cc1ccoc1` (configuration not stated): the EC50 is above 200 µM and the IC50 was above 200 µM.

Turning to `C/C(CC(=O)Nc1ccc(Cl)c(Cl)c1)=N/NC(=O)C[N+](C)(C)C`, the EC50 was above 34.7 µM and the IC50 is above 34.7 µM.

Consider `O=C(/C=C\c1ccc(O)c(O)c1)OC1C(O)CC(OC(=O)/C=C/c2ccc(O)c(O)c2)(C(=O)O)CC1O` (configuration not stated), for which the EC50 was above 200 µM and the IC50 stood at 30.2 µM.

For `C[C@H](CCC(=O)O)[C@H]1CC[C@H]2[C@@H]3C(=O)C[C@@H]4C[C@H](O)CC[C@]4(C)[C@H]3C[C@H](O)[C@]12C`, the EC50 was above 200 µM and the half-inhibitory concentration (IC50) is above 200 µM.

Regarding `Cc1cc(Cl)c(O)c(C2(C(O)c3ccc(O)cc3)NC(=S)NC2=O)c1` (configuration not stated), the EC50 was above 200 µM and the IC50 was 107 µM.

In the case of `COC(=O)C1(SC)C2CCC3C2CCC31` (configuration not stated), the EC50 was above 200 µM and the IC50 is above 200 µM.

Turning to `CCOC(=O)/C(=N\O)C1=CSC2=NNC(C)(C)N12`, the EC50 is above 200 µM and the half-maximal inhibitory concentration (IC50) was determined as 115 µM.

Consider `N#CSCc1nc2ccc(Cl)cc2c(-c2ccccc2)[n+]1[O-]`, for which the EC50 is above 55 µM and the IC50 was found to be 8.91 µM.

Consider `COC(=O)c1ccccc1/C=C1\Cc2ccc3ccccc3c2C1C` (configuration not stated), for which the EC50 is above 200 µM and the IC50 is above 200 µM.

With `C=Cc1c(C#N)nc(C)c(C)c1-c1ccc(OC)c(OC)c1OCc1ccccc1`, the EC50 is above 200 µM and the IC50 is 14.1 µM.

As to `c1c2c(cc3c1OCN(C1CC1)C3)OCN(C1CC1)C2`, the EC50 is above 51.3 µM and the IC50 turned out to be 4.27 µM.

Turning to `O=C1C2=C(CCCCC2)C2CCCCC12O` (configuration not stated), the EC50 was above 200 µM and the IC50 is above 200 µM.

As to `Nc1nc2ncn(CC(O)COC(=O)c3ccccc3)c2c(=O)[nH]1` (configuration not stated), the EC50 is above 21.9 µM and the IC50 is above 21.9 µM.

With `CC[CH2][Sn]([CH2]CC)([O]C(=O)Cc1ccc(F)cc1)[O][Sn]([CH2]CC)([CH2]CC)[O]C(=O)Cc1ccc(F)cc1`, the EC50 was above 5.13 µM and the IC50 came out at 3.24 µM.

In the case of `COC(=O)C1(Cc2ccccc2)Cc2ccccc2C1=O` (configuration not stated), the EC50 was above 200 µM and the IC50 came out at 85.1 µM.
